{"source": "patent US9908884B2", "about": "“EGFR inhibitors and methods of treating disorders” (priority 2009, dated 2018)", "key": {"[1]": {"settings": "Phase I trial; cited from earlier work"}, "[2]": {"system": "H1975 (L858R/T790M) cells", "assay": "EGFR signaling immunoblot in H1975 cells", "assay_type": "cell-based", "settings": "16 hours", "method": "All cell lines were maintained in RPMI 1640 (Cellgro; Mediatech Inc., Herndon, Calif.) supplemented with 10% FBS 100 units/mL penicillin, 100 […], and 2 mM glutamine.\nThe supernatant was used for subsequent procedures. […] Antibody binding was detected using an enhanced chemiluminescence system (New England Nuclear Life Science Products Inc.)."}, "[3]": {"biological_target": "T790M EGFR (Homo sapiens, UniProt P00533, T790M)", "assay": "Mass spectrometric analysis of T790M EGFR modification", "settings": "MS/MS of peptic peptide 791-798", "text": "(A) Intact ESI mass spectra of the free and inhibitor bound. The raw m/z data are shown on the left and the transformed, mass only spectra shown on the right. The measured and theoretical molecular weights of the unmodified as well as modified version of each protein are indicated. In the transformed mass spectra, peaks corresponding to a phosphorylation are indicated. […] All the ions in these mass spectra have been converted to a single charge state.\nFor intact protein mass spectral analysis, the proteins T790M alone and with small molecules bound were injected onto a POROS 20 R2 protein trap and desalted with 0.05% trifluoroacetic acid (TFA) at a flow rate of 100 μL/min. The proteins were eluted into the mass spectrometer using a linear 15%-75% (v/v) acetonitrile gradient over 4 min at 50 μL/min using a Shimadzu HPLC system (LC-10ADvp). Intact protein analyses were performed on an LCT-Premier instrument (Waters Corp., Milford, Mass., USA) equipped with a standard electrospray source. The capillary voltage was 3.2 kV and the cone voltage of 35 V. Nitrogen was used as desolvation gas. A source temperature of 175° C. and a desolvation temperature of 80° C. were applied. The instrument was calibrated by infusing a solution of 500 fmol/μL myoglobin and the mass accuracy was less than 10 ppm. […]"}, "[4]": {"system": "lung cancer patients", "settings": "all lung cancer patients, not selected for EGFR mutation; cited from earlier work"}}}
{"smiles": "CCOc1cc2ncc(C#N)c(Nc3ccc(OCc4ccccn4)c(Cl)c3)c2cc1NC(=O)/C=C/CN(C)C", "note": "[HKI-272]", "values": [{"measurement": "Cmax", "setting": "[1]", "value": "~200", "unit": "nM"}]}
{"smiles": "C=CC(=O)Nc1cccc(Oc2nc(Nc3ccc(N4CCN(C)CC4)cc3)ncc2Cl)c1", "note": "[WZ3146, N-(3-(5-chloro-2-(4-(4-methylpiperazin-1-yl)phenylamino)pyrimidin-4-yloxy)phenyl)acrylamide]", "values": [{"measurement": "inhibition of EGFR, Akt and ERK 1/2 phosphorylation", "setting": "[2]", "value": "significantly lower concentrations compared with CL-387,785"}, {"measurement": "site of covalent attachment", "setting": "[3]", "value": "Cys797 was the site of covalent attachment"}]}
{"smiles": "C#Cc1cccc(Nc2ncnc3cc(OCCOC)c(OCCOC)cc23)c1", "note": "[erlotinib]", "values": [{"measurement": "median time to tumor progression", "setting": "[4]", "value": "approximately 2 months"}]}
{"smiles": "COc1cc2ncnc(Nc3ccc(F)c(Cl)c3)c2cc1OCCCN1CCOCC1", "note": "[gefitinib]", "values": [{"measurement": "median time to tumor progression", "setting": "[4]", "value": "approximately 2 months"}]}
